Reference: the supplement of paper PMC8960247
± gives the standard error.

Test system: 621-103 (TSC2-rescued)
Assay: relative viability vs DMSO; higher = less cytotoxic
Conditions: 0.0001 µM; serum: 10% FBS; 72 h
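Note: immortalized renal angiomyolipoma cells stably carrying empty vector or TSC2, dosed in 384-well plates in DMEM, viability normalized to vehicle-treated wells within each plate.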

First: CC(C)OC(=O)C1=CN(C(=O)c2ccc(F)c(F)c2)CC(C)(C)c2c1[nH]c1ccccc21
Second: Cn1cc(C2=C(c3ccc(Cl)cc3Cl)C(=O)NC2=O)c2ccccc21
The relative viability of the first is higher: 102.7 ± 0.95% for the first, 77.6 ± 1.8% for the second.

`CN(C)Cc1cccc(N/C(=C2\C(=O)Nc3cc(C(N)=O)ccc32)c2ccccc2)c1` and `CN(C)Cc1cccc(N=C(c2ccccc2)c2c(O)[nH]c3cc(C(=O)N(C)C)ccc23)c1` are within error of each other in relative viability: 99.8 ± 1.5% for the first, 98.05 ± 0.44% for the second.

`CNC(=O)Nc1ccc(-c2nc(N3CC4CCC(C3)O4)c3cnn(C4CCC5(CC4)OCCO5)c3n2)cc1` and `COc1cc2c(Nc3ccc(NC(=O)c4ccccc4)cc3)ncnc2cc1OCCCN1CCOCC1` are within error of each other in relative viability: 108 ± 6.1% for the first, 104 ± 1.1% for the second.

`COC(=O)N[C@H](C(=O)N1CCC[C@H]1c1ncc(-c2ccc(-c3ccc(-c4cnc([C@@H]5CCCN5C(=O)[C@@H](NC(=O)OC)C(C)C)[nH]4)cc3)cc2)[nH]1)C(C)C` and `COc1cc2c(Oc3ccc(NC(=O)C4(C(=O)Nc5ccc(F)cc5)CC4)cc3F)ccnc2cc1OCCCN1CCOCC1` are within error of each other in relative viability: 100 ± 2.7% for the first, 97.08 ± 0.89% for the second.

`COc1ccccc1N1CCN(CCN(C(=O)C2CCCCC2)c2ccccn2)CC1` and `Cc1cnc(Nc2ccc(N3CCN(C)CC3)cc2)nc1Nc1cccc(S(=O)(=O)NC(C)(C)C)c1` are the same in relative viability: 102.1 ± 1% for the first, 102 ± 2.6% for the second.

Going from `C[C@@H]1CCO[C@H]2Cn3cc(C(=O)NCc4ccc(F)cc4F)c(=O)c(O)c3C(=O)N12` to `Cn1c(N2CCCCS2(=O)=O)nc(C(=O)NCc2ccc(F)cc2)c(O)c1=O`, the relative viability falls from 111.7 ± 0.85% to 99.8 ± 2.4%.

`C[S+]([O-])c1ccc(-c2nc(-c3ccc(F)cc3)c(-c3ccncc3)[nH]2)cc1` (stereo not given) and `Oc1ccc(-c2nc(-c3ccc(F)cc3)c(-c3ccncc3)[nH]2)cc1` are within error of each other in relative viability: 101.3 ± 0.64% for the first, 99.5 ± 0.91% for the second.

Compared with `Cc1[nH]c(/C=C2\C(=O)Nc3ccc(S(=O)(=O)N(C)c4cccc(Cl)c4)cc32)c(C)c1C(=O)N1CCN(C)CC1`, `Cc1ccc(NC(=O)c2cccc(N(C)C)c2)cc1NC(=O)c1ccc(O)cc1` is higher in relative viability: 97.3 ± 1.6% for the first, 104.9 ± 0.89% for the second.

Going from `Cc1[nH]nc2ccc(-c3cncc(OC[C@@H](N)Cc4ccccc4)c3)cc12` to `Cc1ccc(C(=O)N(CCCN)[C@@H](c2oc3cc(Cl)ccc3c(=O)c2Cc2ccccc2)C(C)C)cc1`, the relative viability falls from 98.7 ± 4.7% to 40.45 ± 0.2%.

First: Cc1c(NC(=O)OC[C@@H]2COCCN2)cn2ncnc(Nc3ccc4c(cnn4Cc4cccc(F)c4)c3)c12
Second: NC(=O)c1cccc2[nH]c(-c3ccc(C4CCCN4)cc3F)nc12 (stereo not given)
The relative viability of the first is higher: 100.9 ± 0.54% for the first, 96.5 ± 3.4% for the second.

`Cc1cccc(-c2[nH]c(C(C)(C)C)nc2-c2ccc3nccnc3c2)n1` and `O=C1NC(=O)/C(=C\c2ccc3nccnc3c2)S1` are within error of each other in relative viability: 98.4 ± 1.4% for the first, 100.2 ± 0.99% for the second.

`N#Cc1c(O)c2c(-c3ccc(-c4ccccc4O)cc3)csc2[nH]c1=O` and `NC(=O)c1ccc(-c2nc(-c3ccccn3)c(-c3ccc4c(c3)OCO4)[nH]2)cc1` are within error of each other in relative viability: 99.2 ± 3.3% for the first, 102 ± 3.6% for the second.

Compared with `NC(=O)[C@@H](CCC(F)(F)F)N(Cc1ccc(-c2ncon2)cc1F)S(=O)(=O)c1ccc(Cl)cc1`, `Nc1nccc(Oc2ccc(NC(=O)c3c[nH]cc(-c4ccc(F)cc4)c3=O)cc2F)c1Cl` is lower in relative viability: 103 ± 1.2% for the first, 90.9 ± 6.6% for the second.

`O=C(NC[C@H](O)CO)c1ccncc1Nc1ccc(I)cc1F` and `O=C1NC(=O)/C(=C/c2ccc(-c3ccc(F)cc3O)o2)S1` are within error of each other in relative viability: 101.8 ± 0.97% for the first, 92.9 ± 9.3% for the second.

`O=C1NC(=O)/C(=C/c2ccc3c(c2)OC(F)(F)O3)S1` and `Oc1c2ccccc2c2c3c(cccc13)N=N2` are within error of each other in relative viability: 98.2 ± 7.7% for the first, 100.6 ± 0.42% for the second.

Same assay, conditions: 0.001 µM; serum: 10% FBS; 72 h

Compared with `CC(C)OC(=O)C1=CN(C(=O)c2ccc(F)c(F)c2)CC(C)(C)c2c1[nH]c1ccccc21`, `Cn1cc(C2=C(c3ccc(Cl)cc3Cl)C(=O)NC2=O)c2ccccc21` is lower in relative viability: 104 ± 1.7% for the first, 84.2 ± 1.4% for the second.

`CN(C)Cc1cccc(N/C(=C2\C(=O)Nc3cc(C(N)=O)ccc32)c2ccccc2)c1` and `CN(C)Cc1cccc(N=C(c2ccccc2)c2c(O)[nH]c3cc(C(=O)N(C)C)ccc23)c1` are within error of each other in relative viability: 97.2 ± 1.9% for the first, 99.6 ± 1.7% for the second.

Compared with `CNC(=O)Nc1ccc(-c2nc(N3CC4CCC(C3)O4)c3cnn(C4CCC5(CC4)OCCO5)c3n2)cc1`, `COc1cc2c(Nc3ccc(NC(=O)c4ccccc4)cc3)ncnc2cc1OCCCN1CCOCC1` is higher in relative viability: 95.7 ± 2.1% for the first, 111 ± 4.9% for the second.

First: COC(=O)N[C@H](C(=O)N1CCC[C@H]1c1ncc(-c2ccc(-c3ccc(-c4cnc([C@@H]5CCCN5C(=O)[C@@H](NC(=O)OC)C(C)C)[nH]4)cc3)cc2)[nH]1)C(C)C
Second: COc1cc2c(Oc3ccc(NC(=O)C4(C(=O)Nc5ccc(F)cc5)CC4)cc3F)ccnc2cc1OCCCN1CCOCC1
The relative viability of the first is higher: 98.82 ± 0.6% for the first, 97.1 ± 1.1% for the second.

`COc1ccccc1N1CCN(CCN(C(=O)C2CCCCC2)c2ccccn2)CC1` and `Cc1cnc(Nc2ccc(N3CCN(C)CC3)cc2)nc1Nc1cccc(S(=O)(=O)NC(C)(C)C)c1` are within error of each other in relative viability: 99 ± 5.8% for the first, 98.71 ± 0.22% for the second.

`C[C@@H]1CCO[C@H]2Cn3cc(C(=O)NCc4ccc(F)cc4F)c(=O)c(O)c3C(=O)N12` and `Cn1c(N2CCCCS2(=O)=O)nc(C(=O)NCc2ccc(F)cc2)c(O)c1=O` are within error of each other in relative viability: 109 ± 5.8% for the first, 105.9 ± 0.6% for the second.

`C[S+]([O-])c1ccc(-c2nc(-c3ccc(F)cc3)c(-c3ccncc3)[nH]2)cc1` (stereo not given) and `Oc1ccc(-c2nc(-c3ccc(F)cc3)c(-c3ccncc3)[nH]2)cc1` are within error of each other in relative viability: 98.42 ± 0.75% for the first, 99.83 ± 0.79% for the second.

`Cc1[nH]c(/C=C2\C(=O)Nc3ccc(S(=O)(=O)N(C)c4cccc(Cl)c4)cc32)c(C)c1C(=O)N1CCN(C)CC1` and `Cc1ccc(NC(=O)c2cccc(N(C)C)c2)cc1NC(=O)c1ccc(O)cc1` are within error of each other in relative viability: 97.86 ± 0.64% for the first, 102 ± 4% for the second.

First: Cc1[nH]nc2ccc(-c3cncc(OC[C@@H](N)Cc4ccccc4)c3)cc12
Second: Cc1ccc(C(=O)N(CCCN)[C@@H](c2oc3cc(Cl)ccc3c(=O)c2Cc2ccccc2)C(C)C)cc1
The relative viability of the first is higher: 89.14 ± 0.74% for the first, 46.1 ± 0.55% for the second.

`Cc1c(NC(=O)OC[C@@H]2COCCN2)cn2ncnc(Nc3ccc4c(cnn4Cc4cccc(F)c4)c3)c12` and `NC(=O)c1cccc2[nH]c(-c3ccc(C4CCCN4)cc3F)nc12` (stereo not given) are within error of each other in relative viability: 100 ± 1.2% for the first, 98.4 ± 1.8% for the second.

`Cc1cccc(-c2[nH]c(C(C)(C)C)nc2-c2ccc3nccnc3c2)n1` and `O=C1NC(=O)/C(=C\c2ccc3nccnc3c2)S1` are within error of each other in relative viability: 99.6 ± 2.7% for the first, 96.5 ± 2.7% for the second.

First: N#Cc1c(O)c2c(-c3ccc(-c4ccccc4O)cc3)csc2[nH]c1=O
Second: NC(=O)c1ccc(-c2nc(-c3ccccn3)c(-c3ccc4c(c3)OCO4)[nH]2)cc1
The relative viability of the first is lower: 95.56 ± 0.75% for the first, 108.5 ± 0.46% for the second.

Going from `NC(=O)[C@@H](CCC(F)(F)F)N(Cc1ccc(-c2ncon2)cc1F)S(=O)(=O)c1ccc(Cl)cc1` to `Nc1nccc(Oc2ccc(NC(=O)c3c[nH]cc(-c4ccc(F)cc4)c3=O)cc2F)c1Cl`, the relative viability falls from 102 ± 1.3% to 94.6 ± 4.2%.

Going from `O=C(NC[C@H](O)CO)c1ccncc1Nc1ccc(I)cc1F` to `O=C1NC(=O)/C(=C/c2ccc(-c3ccc(F)cc3O)o2)S1`, the relative viability falls from 104 ± 1.9% to 95.3 ± 2.2%.

Compared with `O=C1NC(=O)/C(=C/c2ccc3c(c2)OC(F)(F)O3)S1`, `Oc1c2ccccc2c2c3c(cccc13)N=N2` is higher in relative viability: 91.4 ± 7.6% for the first, 101 ± 1.9% for the second.

Same assay, conditions: 0.01 µM; serum: 10% FBS; 72 h

Going from `CC(C)OC(=O)C1=CN(C(=O)c2ccc(F)c(F)c2)CC(C)(C)c2c1[nH]c1ccccc21` to `Cn1cc(C2=C(c3ccc(Cl)cc3Cl)C(=O)NC2=O)c2ccccc21`, the relative viability falls from 98.4 ± 1.8% to 89.8 ± 2.4%.

`CN(C)Cc1cccc(N/C(=C2\C(=O)Nc3cc(C(N)=O)ccc32)c2ccccc2)c1` and `CN(C)Cc1cccc(N=C(c2ccccc2)c2c(O)[nH]c3cc(C(=O)N(C)C)ccc23)c1` are within error of each other in relative viability: 99.2 ± 1.1% for the first, 98.8 ± 1.2% for the second.

Going from `CNC(=O)Nc1ccc(-c2nc(N3CC4CCC(C3)O4)c3cnn(C4CCC5(CC4)OCCO5)c3n2)cc1` to `COc1cc2c(Nc3ccc(NC(=O)c4ccccc4)cc3)ncnc2cc1OCCCN1CCOCC1`, the relative viability rises from 73.8 ± 4.8% to 104 ± 1.9%.

First: COC(=O)N[C@H](C(=O)N1CCC[C@H]1c1ncc(-c2ccc(-c3ccc(-c4cnc([C@@H]5CCCN5C(=O)[C@@H](NC(=O)OC)C(C)C)[nH]4)cc3)cc2)[nH]1)C(C)C
Second: COc1cc2c(Oc3ccc(NC(=O)C4(C(=O)Nc5ccc(F)cc5)CC4)cc3F)ccnc2cc1OCCCN1CCOCC1
The relative viability of the first is higher: 100 ± 1.2% for the first, 93.9 ± 3.7% for the second.

`COc1ccccc1N1CCN(CCN(C(=O)C2CCCCC2)c2ccccn2)CC1` and `Cc1cnc(Nc2ccc(N3CCN(C)CC3)cc2)nc1Nc1cccc(S(=O)(=O)NC(C)(C)C)c1` are within error of each other in relative viability: 99.5 ± 5.7% for the first, 95.5 ± 4.1% for the second.

Going from `C[C@@H]1CCO[C@H]2Cn3cc(C(=O)NCc4ccc(F)cc4F)c(=O)c(O)c3C(=O)N12` to `Cn1c(N2CCCCS2(=O)=O)nc(C(=O)NCc2ccc(F)cc2)c(O)c1=O`, the relative viability falls from 111 ± 2.1% to 101 ± 2.4%.

`C[S+]([O-])c1ccc(-c2nc(-c3ccc(F)cc3)c(-c3ccncc3)[nH]2)cc1` (stereo not given) and `Oc1ccc(-c2nc(-c3ccc(F)cc3)c(-c3ccncc3)[nH]2)cc1` are within error of each other in relative viability: 98.6 ± 1.3% for the first, 99.49 ± 0.82% for the second.

`Cc1[nH]c(/C=C2\C(=O)Nc3ccc(S(=O)(=O)N(C)c4cccc(Cl)c4)cc32)c(C)c1C(=O)N1CCN(C)CC1` and `Cc1ccc(NC(=O)c2cccc(N(C)C)c2)cc1NC(=O)c1ccc(O)cc1` are within error of each other in relative viability: 98.4 ± 2% for the first, 101 ± 3.8% for the second.

Going from `Cc1[nH]nc2ccc(-c3cncc(OC[C@@H](N)Cc4ccccc4)c3)cc12` to `Cc1ccc(C(=O)N(CCCN)[C@@H](c2oc3cc(Cl)ccc3c(=O)c2Cc2ccccc2)C(C)C)cc1`, the relative viability falls from 95.77 ± 0.18% to 59.1 ± 2%.

`Cc1c(NC(=O)OC[C@@H]2COCCN2)cn2ncnc(Nc3ccc4c(cnn4Cc4cccc(F)c4)c3)c12` and `NC(=O)c1cccc2[nH]c(-c3ccc(C4CCCN4)cc3F)nc12` (stereo not given) are the same in relative viability: 102 ± 1.5% for the first, 102 ± 2.6% for the second.

`Cc1cccc(-c2[nH]c(C(C)(C)C)nc2-c2ccc3nccnc3c2)n1` and `O=C1NC(=O)/C(=C\c2ccc3nccnc3c2)S1` are within error of each other in relative viability: 97.58 ± 0.26% for the first, 98.02 ± 0.75% for the second.

Compared with `N#Cc1c(O)c2c(-c3ccc(-c4ccccc4O)cc3)csc2[nH]c1=O`, `NC(=O)c1ccc(-c2nc(-c3ccccn3)c(-c3ccc4c(c3)OCO4)[nH]2)cc1` is higher in relative viability: 96.1 ± 3.5% for the first, 111 ± 4.9% for the second.

`NC(=O)[C@@H](CCC(F)(F)F)N(Cc1ccc(-c2ncon2)cc1F)S(=O)(=O)c1ccc(Cl)cc1` and `Nc1nccc(Oc2ccc(NC(=O)c3c[nH]cc(-c4ccc(F)cc4)c3=O)cc2F)c1Cl` are the same in relative viability: 101.6 ± 0.3% for the first, 102 ± 1.6% for the second.

Compared with `O=C(NC[C@H](O)CO)c1ccncc1Nc1ccc(I)cc1F`, `O=C1NC(=O)/C(=C/c2ccc(-c3ccc(F)cc3O)o2)S1` is lower in relative viability: 105 ± 1.4% for the first, 96.95 ± 0.74% for the second.

First: O=C1NC(=O)/C(=C/c2ccc3c(c2)OC(F)(F)O3)S1
Second: Oc1c2ccccc2c2c3c(cccc13)N=N2
The relative viability of the first is lower: 90.7 ± 1.1% for the first, 101.1 ± 0.35% for the second.
